# According to article PMC10224329, “Design, Synthesis, and Antiproliferative Activity of Benzopyran-4-One-Isoxazole Hybrid Compounds” (Molecules, 2023):
# How the values were obtained:
# [1] = system: human embryonic kidney (HEK-293) cell lines; experiment: MTS cell viability assay, non-cancerous cells; assay type: cell-based; details: Homo sapiens
# Excerpt: (§1) The compounds were further screened for their in vitro cytotoxicity against non-cancerous normal cell lines, viz., human embryonic kidney (HEK-293) and normal pig kidney (LLCPK) cell lines. These cell lines were selected to determine whether the compounds had selectivity against cancerous cells in contrast to non-cancerous cells. The data obtained is shown in Figure 3a–b (cf. Supplementary Materials for the data obtained for intermediates and starting materials Figure S28.7–S28.8, page no. 77–78).
# (§2) Cell viability assays were performed using the MTS protocol. The in vitro cytotoxicity of the conjugates was evaluated using six human cancer cell lines, one human normal kidney cell line, and one mammalian normal kidney cell line, which included human leukemia carcinoma cell lines (CCRF-CEM), human ovarian adenocarcinoma cell lines (SKOV-3), human breast tumor cell lines (MDA-MB-231), human prostate cancer cell lines (PC-3), androgen-independent human prostate cancer cell lines (DU-145), human renal carcinoma (iSLK), human embryonic kidney cell lines (HEK-293), and normal mammalian kidney cell line (LLCPK) to determine the toxicity of the synthesized conjugates. CCRF-CEM cells were seeded at 50,000 cells in 0.1 mL per well in 96-well plates, and in the case of SKOV-3, MDA-MB-231, PC-3, DU-145, HEK-293, and LLCPK cell lines, the cells were seeded at 5000 cells in 0.1 mL per well in 96-well plates. The CCRF-CEM cells were seeded in RPMI-1640 media containing 2mM L-glutamine, 1.5 g/L sodium bicarbonate, supplemented with fetal bovine serum (FBS) 10% media, SKOV-3, MDA-MB-231, and LLCPK cells were seeded in MEME media with Earle’s salts and sodium bicarbonate, without L-glutamine, supplemented with fetal bovine serum (FBS) 10%, PC-3 cells were seeded in DMEM:F-12 containing 1:1 mixture with L-glutamine with HEPES, supplemented with fetal bovine serum (FBS) 10%, and DU-145 and HEK-293 cells were seeded in DMEM containing 4500 mg/L glucose, L-glutamine, and sodium bicarbonate, without sodium pyruvate, supplemented with FBS (10%), 24 h prior to the experiment. The compounds at a final concentration of 25 µM (higher concentration stock solution prepared in DMSO) were added to each well in triplicate and incubated for 24 and 72 h at 37 °C in a humidified atmosphere (95% air and 5% CO2). The cell viability was then determined by measuring the absorbance of the formazan product at 490 nm using a microplate reader using a SpectraMax M2 microplate spectrophotometer, Molecular Devices, San Jose, CA, USA. The percentage of cell survival was calculated as [(OD value of cells treated with the test mixture of compounds) − (OD value of culture medium)]/[(OD value of control cells) − (OD value of culture medium)] × 100%. IC50 values of compounds were calculated using non-linear regression analysis in GraphPad Prism (Boston, MA, USA).
# [2] = system: normal pig kidney (LLCPK) cell lines; experiment: MTS cell viability assay, non-cancerous cells; assay type: cell-based; details: Sus scrofa, conjugates at 25 μM, 72 h
# Excerpt: as §1, §2
# [3] = Proteolytic stability in human serum (HPLC); assay type: in vitro ADME; details: 37 °C
# Description: These compounds were further explored towards degradation by proteolytic enzymes towards degradation. Compound 5a was investigated for proteolytic stability in the presence of human serum. It was incubated with human serum at 37 °C, and aliquots of the reaction mixture were analyzed via HPLC at different time points up to 2 h. The concentration of Compound 5a was measured by integrating the area under the curve (AUC) and correspondingly calculated from the standard curve of 5a at different concentrations (cf. Supplementary Materials, page no. 81–82).
# The HPLC chromatogram of serum incubated with compound 5a for 80 min was illustrated in Figure 5. […]
# HPLC analysis was carried out to evaluate the proteolytic stability of selected conjugate 5a in the presence of human serum. First, different concentrations of Compound 5a were analyzed using the analytical HPLC, and a standard curve was plotted for the different concentrations of Compound 5a versus the area under the curve. […] The initial time was recorded, and 100 μL aliquots of the reaction mixture were removed and added to methanol (200 μL) for precipitation of serum proteins in human serum. […] A linear gradient from 10% to 100% acetonitrile/water in 65 min with a flow rate of 1.0 mL/min was used, and the absorbance of the eluting peaks was detected at 254 nm. […]
smiles,measurement,setting,value
"Cc1noc(C)c1C(=O)OCc1coc2ccccc2c1=O [Compound 5a, (4-Oxo-4H-1-benzopyran-3-yl)methyl 3,5-dimethylisoxazole-4-carboxylate]",IC50,"[1]; HEK293, normal HEK-293 cells, average of three independent tests in triplicate",293 µM
same,inhibition at 25 µM,"[1]; HEK293, conjugates at 25 μM, 72 h",37%
same,inhibition at 25 µM,[2],57%
same,degradation on incubation with human serum,[3]; after 2 h of incubation with human serum,completely degraded
same,half-life at 50 µM,"[3]; human, human serum (25% v/v in RPMI media), human serum",~13.6 min
